From US9220746B2, “Compounds and methods for treating bone disorders and controlling weight” (The University of North Carolina at Chapel Hill, priority 2009, dated 2015)
Entries after “also recorded” stand apart in the source; their conditions may differ.

Key:
Igfbp2−/− COBs and BMSCs = assay: In vitro osteoblastogenesis of calvarial osteoblasts and bone marrow stromal cells (ALP, Alizarin Red staining); type: cell-based, mouse
Experimental: FIG. 1. The heparin-binding domain of IGFBP2 enhances osteoblastogenesis in vitro. a. Von Kossa staining was performed using tibia from 8 weeks old Igfbp2^+/+ and Igfbp2^−/− male mouse. b. Calvarial osteoblasts (COBs) were harvested from day 7 old male Igfbp2^+/+ and Igfbp2^−/− male mouse, and treated with osteogenic media in the presence of 2.5% FCS. At day 7, alkaline phosphatase (ALP) staining was performed. c and d. COBs and Bone marrow stromal cells (BMSCs) from Igfbp2^−/− mouse were treated with osteogenic media with pegylated heparin-binding domain peptide (PEG-HBD) in the presence of 10% FCS. ALP staining (day 7) and Alizarin Red staining (day 14) were performed (c). RNA was isolated at day 14 from BMSCs and expression of ALP, osteocalcin (OC) and Runx2 was analyzed by real-time PCR. Figures shown represent at least 3 independent experiments (n=3). Statistical difference was analyzed by student's t test. *; p<0.05.
FIG. 7. […] Igfbp2^−/− calvarial osteoblasts (COBs) were cultured with osteogenic media with PBS, control peptide (2 μg/ml) or heparin binding domain peptide (HBD-peptide) (2 μg/ml). Osteoblastogenesis was evaluated by Alizarin Red staining.
Neonatal calvarial osteoblasts were collected from 7-10 day old mice as previously described^53. Briefly, calvariae were digested 5 times with collagenase P and Trypsin. Cells released from digests 2 through 5 were collected as primary calvarial osteoblasts, and maintained in DMEM supplemented with 10% FCS and non-essential amino acids. Osteoblastogenesis of primary calvarial osteoblasts was carried out by treating cells with 4 mM β-glycerophosphate and 50 μg/ml ascorbic acid in αMEM. Bone marrow stromal cells (BMSCs) were harvested from femurs and tibias of 8 weeks old mice as described previously^10. Osteoblastogenesis of BMSCs was induced by the treatment with osteogenic media consisting of αMEM containing 10% FCS, 8 mM β-glycerophosphate, and 50 μg/ml ascorbic acid.

metacarpals = assay: Metacarpal culture ex vivo (calcein incorporated area, length, width); type: cell-based, mouse
Experimental: FIG. 2. The heparin binding domain of IGFBP2 enhances periosteal expansion of metacarpals ex vivo. Metacarpals were collected from day 1 male mouse, and treated with osteogenic media with IGFBP2 (200 ng/ml) or the heparin-binding domain peptide (HBD-peptide) (2 μg/ml) in the presence or absence of IGF-1 (20 ng/ml) for 10 days. Bones were labeled with calcein (500 ng/ml) and calcein incorporated area was visualized (a) and longitudinal length of calcein incorporated area was quantified (b). Alcian blue and Von Kossa double staining was performed (c) and length and width of metacarpals were quantified (d). Statistical difference was analyzed by ANOVA followed by Bonferroni post-hoc test. Figures shown represent at least 3 independent experiments. Values are expressed as the mean±SEM (n=3-4). ^a; <0.05 vs PBS, ^b; <0.01 vs PBS, ^c; <0.001 vs PBS, ^d; <0.01 vs HBD, ^e; <0.05 vs IGF-I, ^f; <0.05 vs HBD.
Metacarpals were isolated from Igfbp2^−/− mice at 1-day old and incubated in DMEM containing 0.5% BSA, 50 μg/ml ascorbic acid and 1 mM β-glycerol phosphate for 10 days^54. Stimulants were added to culture media from day 1. At day 10, metacarpals were incubated in media containing calcein (500 ng/ml) for 2 hours for staining of calcium deposition, and images were obtained. Then, bones were fixed with 4% PFA, embedded in paraffin, and processed for Alcian blue and von Kossa double staining.

Igfbp2−/− mice = assay: MicroCT of femurs and vertebrae (L5) after in vivo treatment of Igfbp2−/− mice; design: species or system mouse; details: in vivo administration, summary statement
Experimental: Igfbp2^+/+ and Igfbp2^−/− mice were administered with PBS or PEG-HBD-peptide (50 μg/day) intraperitoneally 5 times per week from 6 to 9 weeks of age. Dual-energy x-ray absorptiometry was performed before the initiation of treatment. Mice were injected with 20 mg/kg calcein intraperitoneally 7 days and 2 days before sample collection.
Microarchitecture of distal trabecular bone and midshaft cortical bone was analyzed with femurs and vertebrae (L5) by MicroCT (MicroCT40)^10. Approximately 100 slices were measured just proximal to the distal growth plate, with an isotropic pixel size of 12 μm and slice thickness of 12 μm. Midshaft cortical bone thickness was analysis in a similar fashion using approximately 18 slices obtained at the exact midpoint of the femur.

IGFBP-2 knockout mice [1] = assay: Body weight and fat mass of IGFBP-2 knockout mice given the heparin binding peptide; type: in vivo, mouse; details: IGFBP-2 −/− mice, 50 mcg intraperitoneally three days per week, 6 week treatment; for Fat Mass: by MRI
Experimental: Further experiments have been carried out in which the knockout mice and control animals have been administered the mouse homologue of the heparin binding peptide. The peptide was administered to 8 animals in each group. The knockout animals weighed 30.4±1.5 gm whereas the control animals weighed 25.2±1.1 gm. The knockout animals that received the active peptide weighed 24.9±1.3 gm. […] More importantly when absolute fat mass was analyzed by MRI, highly significant differences were also present. The knockout mice had 6.21±0.76 grams of fat. The control mice had 3.82±0.67 grams and the knockout mice administered the heparin binding peptide had 3.67±0.36 grams. Again these are highly significant differences.

IGFBP-2 knockout mice [2] = assay: Glucose tolerance test in IGFBP-2 knockout mice; type: in vivo, mouse; details: knockout animals with impaired glucose tolerance; not significantly different from control mice
BP2−/− mice = assay: Flow cytometry of white blood cell populations in peripheral blood; type: in vivo, mouse; details: BP2−/− male mice, intraperitoneal injection, vs PBS injected controls
[3] = listed as heparin binding peptide

KHLSLEEPKKLRP (IGFBP-2 heparin binding domain-containing peptide sequence) [HBD-peptide]
mineralization of Igfbp2−/− COBs (Alizarin Red) compared to PBS (Igfbp2−/− COBs and BMSCs; 2 μg/ml, osteogenic media): fully active
cell proliferation of osteoblasts and bone marrow stromal cells (alkaline phosphatase, alizarin red staining) (Igfbp2−/− COBs and BMSCs; compared to full length (FL) IGFBP-2 and control peptide): increased cell proliferation
bone mineralization phenotype of Igfbp2−/− bone marrow stromal cells and calvarial osteoblasts (Igfbp2−/− COBs and BMSCs; in vitro, summary statement): rescued the low bone mineralization phenotype
calcein incorporated area of metacarpals (metacarpals; 10 days, IGFBP2 200 ng/ml, peptides 2 μg/ml, IGF-1 20 ng/ml, vs PBS): significantly enhanced
width (and length) of metacarpals (metacarpals; 10 days, IGFBP2 200 ng/ml, peptides 2 μg/ml, vs PBS): increased the width of metacarpals
periosteal expansion and growth of Igfbp2−/− metacarpal explants (metacarpals; ex vivo, summary statement): stimulated periosteal expansion and growth
bone mass phenotype of Igfbp2−/− mice (trabecular bone mass, osteoblast number) (Igfbp2−/− mice): rescued the low bone mass phenotype
bone mass phenotype of Igfbp2−/− mice (trabecular bone mass, osteoblast number) (Igfbp2−/− mice; listed as HBD): trabecular bone mass was rescued and osteoblast number increased
Fat Mass (IGFBP-2 knockout mice [1]; listed as HBD): 3.67 ± 0.36 gms
Fat Mass (IGFBP-2 knockout mice [1]; [3]): 3.67±0.36 gms
Body Weight (IGFBP-2 knockout mice [1]; listed as HBD): 24.9 ± 1.3 gms
Body Weight (IGFBP-2 knockout mice [1]; [3]): 24.9±1.3 gms
glucose tolerance (IGFBP-2 knockout mice [2]): significantly improved
percentages of differentiated lymphoid and myeloid cells (monocytes, macrophages, neutrophils) in peripheral blood (BP2−/− mice; listed as HBD): suppressed the percentages of mature monocytes, macrophages and neutrophils; also recorded: reduced the number of differentiated lymphoid and myeloid cells
percentages of differentiated lymphoid and myeloid cells (monocytes, macrophages, neutrophils) in peripheral blood (BP2−/− mice; listed as IGFBP-2 heparin binding domain (HBD) peptide): reduced the percentage of macrophages
